According to US9980910B2, “Enteric-coated sodium metabisulfite livestock feed additive for vomitoxin detoxification” (priority 2010, dated 2018):

What was measured:
66-278 lbs pigs = test: Growth performance of 66-278 lbs pigs fed sodium metabisulfite in clean diets (F6_G07_01); format: in vivo; settings: level increased from 0 to 0.5 to 1.0% in non-vomitoxin contaminated diets
Description: The data presented in Table 2 confirms that toxic effects begin to occur between 0 and 0.5% sodium metabisulfite in the diet.

[1] = Destruction of vomitoxin by sodium metabisulfite in vitro at two pH levels
Description: Sodium metabisulfite was tested for its ability to destroy vomitoxin in vitro at different pH levels. […] For example, when tested at 10 lb/ton, sodium metabisulfite destroyed 70% of the measurable vomitoxin at pH 6.5, but none at pH 3.0. At 20 lbs/ton sodium metabisulfite destroyed over 97% of the vomitoxin at pH 6.5 but only 41% at pH 3.0. Destruction levels less than 10% are considered to be random variation in this assay and not related to treatment. […] Although the levels of sodium metabisulfite required to destroy vomitoxin in this in vitro assay are higher than the “safe” level of 0.35% determined in a previous referenced feeding trial in pigs, other studies (Tables 1 and 3) clearly show positive effects of sodium metabisulfite at levels of 0.125 to 0.25% in vomitoxin-contaminated diets.

[2] = test system: 25-50 lb pigs fed vomitoxin-contaminated corn; settings: P<0.01
pigs [3] = settings: feeding to pigs; cited from earlier work
pigs [4] = settings: cited from earlier work
[5] = vomitoxin-contaminated diet, 5 to 20 lbs/ton of diet (0.25 to 1.0%)
[6] = diet containing approximately 5 ppm vomitoxin, 25-55 lb pigs

O=S([O-])S(=O)(=O)[O-].[Na+].[Na+] [sodium metabisulfite, Sodium metabisulfite]
Average daily feed intake (effect in words) (66-278 lbs pigs): linearly reduced | % destruction of vomitoxin ([1]; pH 3.0, metabisulfite 2.5 lbs/ton): 4.2% | % destruction of vomitoxin ([1]; pH 3.0, metabisulfite 5 lbs/ton): 0.9% | % destruction of vomitoxin ([1]; pH 3.0, metabisulfite 20 lbs/ton): 41% | % destruction of vomitoxin ([1]; pH 6.5, metabisulfite 2.5 lbs/ton): 0.0% | % destruction of vomitoxin ([1]; pH 6.5, metabisulfite 5 lbs/ton): 0.0% | % destruction of vomitoxin ([1]; pH 6.5, metabisulfite 10 lbs/ton): 70% | Average daily feed intake (ADFI) (effect in words) [2, 5]: improves | Average daily gain (ADG) (effect in words) [2, 5]: improves | "no-effect" level (no toxic effects) (pigs [3]): 0.35 % of the diet

CC1=C[C@H]2O[C@@H]3[C@H](O)C[C@](C)([C@@]2(CO)[C@H](O)C1=O)[C@]31CO1 [Vomitoxin, deoxynivalenol]
Reduction of daily feed intake [2, 6]: 20% | Reduction of growth rate [2, 6]: 15% | Vomitoxin level resulting in complete feed refusal, vomiting, immune suppression, and gastrointestinal lesions (pigs [4]): above 5 ppm
